Assay results reported in paper PMC9865890, “N-Derivatives of (Z)-Methyl 3-(4-Oxo-2-thioxothiazolidin-5-ylidene)methyl)-1H-indole-2-carboxylates as Antimicrobial Agents—In Silico and In Vitro Evaluation” (Pharmaceuticals, 2023).
Where two headings read alike, the source gives them in different places.

Assays:
M. flavus = assay: Antibacterial microdilution (MIC/MBC); type: cell-based; settings: Micrococcus flavus; M.f. (M. flavus)
Method in brief: (§1)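 Tested in a broth-type modified microdilution setup against each strain, giving paired MIC/MBC values.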

[1] = test system: Escherichia coli (ATCC 35210); assay: Antibacterial microdilution (MIC/MBC); type: cell-based; settings: E. coli
Method in brief: as §1

[2] = test system: Bacillus cereus (clinical isolate); assay: Antibacterial microdilution (MIC/MBC); type: cell-based; settings: B.c. (B. cereus)
Method in brief: as §1

[3] = test system: Salmonella typhimurium (ATCC 13311); assay: Antibacterial microdilution (MIC/MBC); type: cell-based; settings: S.t. (S. typhimurium)
Method in brief: as §1

[4] = test system: Listeria monocytogenes (NCTC 7973); assay: Antibacterial microdilution (MIC/MBC); type: cell-based; settings: Listeria monocytogenes, NCTC7973, L.m. (L. monocytogenes)
Method in brief: as §1

P. aeruginosa = assay: Antibacterial microdilution (MIC/MBC); type: cell-based; settings: P.a. (P. aeruginosa)
Method in brief: as §1

[5] = test system: Enterobacter cloacae (clinical isolate); assay: Antibacterial microdilution (MIC/MBC); type: cell-based; settings: En.cl (En. cloacae)
Method in brief: as §1

[6] = test system: Staphylococcus aureus (ATCC 6538); assay: Antibacterial microdilution (MIC/MBC); type: cell-based; settings: Staphylococcus aureus, ATCC6538, S.a. (S. aureus)
Method in brief: as §1

[7] = test system: Penicillium verrucosum var. cyclopium (food isolate); assay: Antifungal bioassay (MIC/MFC); type: cell-based
in vitro = type: cell-based; settings: human
Description: To evaluate cytotoxicity, compounds 1, 2, 8, and 11 were chosen to be tested in the human normal fetal lung fibroblast MRC-5 cell line within the following range of three concentrations for each substance: 1 × 10^−7 M (0.1 μM), 1 × 10^−6 Μ (1 μM), and 1 × 10^−5 M (10 μΜ). […] More specifically, under this exposure to compound 11, the cellular viability was measured to the level of 91.0%.
The normal human fetal lung fibroblast MRC-5 cell line was maintained and used in our laboratory (Dr. I.s.Vizirianakis, Laboratory of Pharmacology, School of Pharmacy, Aristotle University of Thessaloniki, Greece) (passage 15 < 40), as previously published. Cells were grown in culture under the following conditions: 37 °C, humidified atmosphere containing 5% v/v CO2, in DMEM (Dulbecco’s modified Eagle Medium) enriched with 10% FBS and 1% PS. The compounds tested were dissolved in DMSO and stored at 4 °C. […] After the incubation, the OD for each well was determined at 450 nm in a multifunction microplate reader. […] Statistical t-test and one-way analysis of variance (ANOVA) were performed via the use of the SPSS program and the significance level was determined at p < 0.05.

[8] = test system: Trichoderma viride (IAM 5061); assay: Antifungal bioassay (MIC/MFC); type: cell-based; settings: T.v. (T. viride)
Method in brief: (§2)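 Replicates: two per fungal strain.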

[9] = test system: Penicillium funiculosum (ATCC 36839); assay: Antifungal bioassay (MIC/MFC); type: cell-based; settings: Talaromyces funiculosus, ATCC36839; P.f. (P. funiculosum)
Method in brief: as §2

[10] = test system: Aspergillus versicolor (ATCC 11730); assay: Antifungal bioassay (MIC/MFC); type: cell-based; settings: ATCC11730, A.v. (A. versicolor)
Method in brief: as §2

[11] = test system: Aspergillus fumigatus (ATCC 1022); assay: Antifungal bioassay (MIC/MFC); type: cell-based; settings: ATCC1022, A.f. (A. fumigatus)
Method in brief: as §2

P. ochrochloron = assay: Antifungal bioassay (MIC/MFC); type: cell-based; settings: Penicillium ochrochloron
Method in brief: as §2

[12] = test system: Aspergillus niger (ATCC 6275); assay: Antifungal bioassay (MIC/MFC); type: cell-based; settings: ATCC6275, A.n. (A. niger)
Method in brief: as §2

A. ochraceus = assay: Antifungal bioassay (MIC/MFC); type: cell-based; settings: A.o. (A. ochraceus)
Method in brief: as §2

COC(=O)c1[nH]c2ccccc2c1/C=C1\SC(=S)N(CC(=O)O)C1=O [Compound 11, (Z)-2-(5-((2-(methoxycarbonyl)-1H-indol-3-yl)methylene)-4-oxo-2-thioxothiazolidin-3-yl)acetic acid]
11 ± 10 µg/mL: MIC (P. aeruginosa) | MIC [5]
8 ± 0.6 µg/mL: MIC [2] | MIC ([6]; read-out: MIC) | MIC [8] | MIC (A. ochraceus)
120 ± 40 µg/mL: MFC [11]
30 ± 10 µg/mL: MIC (M. flavus) | MBC ([1]; Escherichia coli, ATCC35210) | MBC ([3]; Salmonella enterica) | MIC ([4]; read-out: MIC) | MBC (P. aeruginosa; Pseudomonas aeruginosa) | MBC ([5]; Enterobacter cloacae) | MFC [7] | MFC [9] | MFC [10] | MFC (P. ochrochloron; P.o. (P. ochrochloron)) | MFC [12]
292 to 294 °C: melting point
15 µg/mL: MIC ([1]; Escherichia coli, ATCC35210, read-out: MIC) | MIC ([3]; Salmonella enterica, read-out: MIC)
8 µg/mL: MIC ([2]; Bacillus cereus, read-out: MIC) | MIC ([8]; Trichoderma viride, IAM5061, read-out: MIC) | MIC (A. ochraceus; Aspergillus ochraceus, read-out: MIC)
15 ± 3 µg/mL: MIC [7] | MFC ([8]; Trichoderma viride, IAM5061) | MIC [9] | MIC [10] | MIC (P. ochrochloron; P.o. (P. ochrochloron; text: P. ochramensis), read-out: MIC) | MIC [12] | MFC (A. ochraceus; Aspergillus ochraceus)
91%: viability at 48 h, 1 µM (in vitro) | viability at 48 h, 10 µM (in vitro)
11 µg/mL: MIC (P. aeruginosa; Pseudomonas aeruginosa, read-out: MIC) | MIC ([5]; Enterobacter cloacae, read-out: MIC)
15 ± 9 µg/mL: MIC [1] | MBC ([2]; Bacillus cereus) | MIC [3] | MBC [6]
60 ± 6 µg/mL: MBC (M. flavus) | MBC [4] | MIC [11]
